The source made the active and inactive calls. No cut-off for these calls is given here.
What was measured:
LNCaP [1] = assay: Induction of apoptosis in human LNCAP cells assessed as down regulation of Bcl2 expression at 500 ug/ml measured after 24 hrs by Western blot analysis; format: functional, cell-based
LNCaP [2] = assay: Up regulation of TP73 gene expression in human LNCAP cells at 500 ug/ml measured after 24 hrs by RT profile PCR analysis relative to control; format: functional
LNCaP [3] = assay: Up regulation of TNFRSF1B gene expression in human LNCAP cells at 500 ug/ml measured after 24 hrs by RT profile PCR analysis relative to control; format: functional
LNCaP [4] = assay: Up regulation of FAS gene expression in human LNCAP cells at 500 ug/ml measured after 24 hrs by RT profile PCR analysis relative to control; format: functional
[5] = Drug uptake in cytoplasm of human LNCAP cells at 250 to 500 ug/ml incubated for 12 hrs followed by 3 times washout by fluorescence microscopic analysis; format: ADME, subcellular
LNCaP [6] = assay: Up regulation of BAX gene expression in human LNCAP cells at 500 ug/ml measured after 24 hrs by RT profile PCR analysis relative to control; format: functional
LNCaP [7] = assay: Induction of apoptosis in human LNCAP cells assessed as up regulation of pro-apoptotic protein Apaf-1 expression at 500 ug/ml measured after 24 hrs by Western blot analysis; format: functional, cell-based
LNCaP [8] = assay: Up regulation of TNFRSF1OB gene expression in human LNCAP cells at 500 ug/ml measured after 24 hrs by RT profile PCR analysis relative to control; format: functional
LNCaP [9] = assay: Induction of apoptosis in human LNCAP cells assessed as up regulation of pro-apoptotic protein Bax expression at 500 ug/ml measured after 24 hrs in presence of topotecan by Western blot analysis; format: functional, cell-based
LNCaP [10] = assay: Up regulation of TNFRSF10A gene expression in human LNCAP cells at 500 ug/ml measured after 24 hrs by RT profile PCR analysis relative to control; format: functional
LNCaP [11] = assay: Induction of apoptosis in human LNCAP cells assessed as down regulation of survivin expression at 500 ug/ml measured after 24 hrs in presence of topotecan by Western blot analysis; format: functional, cell-based
LNCaP [12] = assay: Induction of apoptosis in human LNCAP cells assessed as Bax/Bcl2 ratio at 500 ug/ml measured after 24 hrs in presence of topotecan by Western blot analysis; format: functional
LNCaP [13] = assay: Down regulation of IGF1R gene expression in human LNCAP cells at 500 ug/ml measured after 24 hrs by RT profile PCR analysis relative to control; format: functional
LNCaP [14] = assay: Induction of apoptosis in human LNCAP cells assessed as decrease in uncleaved PARP expression at 500 ug/ml measured after 24 hrs in presence of topotecan by Western blot analysis; format: functional, cell-based
LNCaP [15] = assay: Up regulation of GADD45A gene expression in human LNCAP cells at 500 ug/ml measured after 24 hrs by RT profile PCR analysis relative to control; format: functional
LNCaP [16] = assay: Induction of apoptosis in human LNCAP cells assessed as up regulation of pro-apoptotic protein Apaf-1 expression at 500 ug/ml measured after 24 hrs in presence of topotecan by Western blot analysis; format: functional, cell-based
LNCaP [17] = assay: Induction of apoptosis in human LNCAP cells assessed as up regulation of p21 expression at 500 ug/ml measured after 24 hrs in presence of topotecan by immunoblot analysis; format: functional, cell-based
LNCaP [18] = assay: Induction of apoptosis against human LNCAP cells assessed as down regulation of survivin expression at 500 ug/ml measured after 24 hrs by Western blot analysis; format: functional, cell-based
[19] = target: T1, Tumor necrosis factor receptor superfamily member 6 (Homo sapiens) (UniProt P25445); assay: Activation of FAS receptor in human LNCAP cells assessed as increase in caspase 8 activity at 500 ug/ml measured after 24 hrs in presence of topotecan by Ac-IETD-pNA substrate based colorimetric assay; format: cell-based
T1 sequence (whole entry): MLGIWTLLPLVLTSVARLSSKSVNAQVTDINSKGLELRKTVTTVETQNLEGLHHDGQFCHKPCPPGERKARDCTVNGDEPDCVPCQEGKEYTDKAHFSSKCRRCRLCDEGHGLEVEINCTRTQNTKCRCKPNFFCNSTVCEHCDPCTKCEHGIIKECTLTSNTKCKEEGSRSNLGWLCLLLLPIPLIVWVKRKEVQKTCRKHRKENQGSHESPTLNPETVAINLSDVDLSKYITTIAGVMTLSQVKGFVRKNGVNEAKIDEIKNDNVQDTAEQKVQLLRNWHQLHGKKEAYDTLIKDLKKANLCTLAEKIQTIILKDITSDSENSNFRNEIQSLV

LNCaP [20] = assay: Down regulation of BCL2 gene expression in human LNCAP cells at 500 ug/ml measured after 24 hrs by RT profile PCR analysis relative to control; format: functional
[21] = Drug uptake in plasma membrane of human LNCAP cells at 250 to 500 ug/ml incubated for 12 hrs followed by 3 times washout by fluorescence microscopic analysis; format: ADME, cell membranes
LNCaP [22] = assay: Induction of apoptosis in human LNCAP cells assessed as up regulation of p21 expression at 500 ug/ml measured after 24 hrs by immunoblot analysis; format: functional, cell-based
LNCaP [23] = assay: Induction of apoptosis in 3 hrs FAS inhibitor KP7-6 treated human LNCAP cells assessed as increase in caspase 8 activity at 500 ug/ml measured after 24 hrs by Ac-IETD-pNA substrate based colorimetric assay; format: functional, cell-based
LNCaP [24] = assay: Induction of apoptosis in human LNCAP cells assessed as increase in caspase 3 activity at 500 ug/ml measured after 24 hrs by Ac-DEVD-pNA substrate based colorimetric assay; format: functional, cell-based
LNCaP [25] = assay: Down regulation of BIRC5 gene expression in human LNCAP cells at 500 ug/ml measured after 24 hrs by RT profile PCR analysis relative to control; format: functional
LNCaP [26] = assay: Induction of apoptosis in human LNCAP cells assessed as increase in FAS expression at 500 ug/ml measured after 24 hrs by Western blot analysis; format: functional, cell-based
LNCaP [27] = assay: Induction of apoptosis in human LNCAP cells assessed as Bax/Bcl2 ratio at 500 ug/ml measured after 24 hrs by Western blot analysis; format: functional
LNCaP [28] = assay: Down regulation of AKT1 gene expression in human LNCAP cells at 500 ug/ml measured after 24 hrs by RT profile PCR analysis relative to control; format: functional
LNCaP [29] = assay: Up regulation of CASP8 gene expression in human LNCAP cells at 500 ug/ml measured after 24 hrs by RT profile PCR analysis relative to control; format: functional
LNCaP [30] = assay: Induction of apoptosis in human LNCAP cells assessed as increase in caspase 9 activity at 500 ug/ml measured after 24 hrs by Ac-LEHD-pNA substrate based colorimetric assay; format: functional, cell-based
LNCaP [31] = assay: Induction of apoptosis in human LNCAP cells assessed as down regulation of Bcl2 expression at 500 ug/ml measured after 24 hrs in presence of topotecan by Western blot analysis; format: functional, cell-based
LNCaP [32] = assay: Induction of DNA fragmentation in human LNCAP cells at 500 ug/ml measured after 24 hrs in presence of topotecan by agarose gel electrophoresis; format: functional, cell-based
LNCaP [33] = assay: Induction of apoptosis in human LNCAP cells assessed as increase in FAS expression at 500 ug/ml measured after 24 hrs in presence of topotecan by Western blot analysis; format: functional, cell-based
LNCaP [34] = assay: Induction of apoptosis in human LNCAP cells assessed as down regulation of Mcl-1 expression at 500 ug/ml measured after 24 hrs by Western blot analysis; format: functional, cell-based
LNCaP [35] = assay: Induction of DNA fragmentation in human LNCAP cells at 500 ug/ml measured after 24 hrs by agarose gel electrophoresis; format: functional, cell-based
LNCaP [36] = assay: Cytotoxicity against human LNCAP cells assessed as reduction in cell viability at 500 ug/ml measured after 24 hrs in presence of topotecan by trypan blue dye exclusion test relative to control; format: functional
LNCaP [37] = assay: Induction of apoptosis in human LNCAP cells assessed as up regulation of p53 expression at 500 ug/ml measured after 24 hrs by immunoblot analysis; format: functional, cell-based
LNCaP [38] = assay: Induction of apoptosis in human LNCAP cells assessed as down regulation of Mcl-1 expression at 500 ug/ml measured after 24 hrs in presence of topotecan by Western blot analysis; format: functional, cell-based
LNCaP [39] = assay: Induction of apoptosis in human LNCAP cells assessed as increase in cleaved PARP expression at 500 ug/ml measured after 24 hrs in presence of topotecan by Western blot analysis; format: functional, cell-based
LNCaP [40] = assay: Cytotoxicity against human LNCAP cells assessed as reduction in cell viability at 500 ug/mL after 24 hrs by trypan blue dye exclusion assay; format: functional, cell-based
LNCaP [41] = assay: Induction of apoptosis in human LNCAP cells assessed as up regulation of p53 expression at 500 ug/ml measured after 24 hrs in presence of topotecan by immunoblot analysis; format: functional, cell-based
LNCaP [42] = assay: Induction of apoptosis in human LNCAP cells assessed as up regulation of cleaved caspase 3 expression at 500 ug/ml measured after 24 hrs in presence of topotecan by Western blot analysis; format: functional, cell-based
LNCaP [43] = assay: Induction of apoptosis in human LNCAP cells assessed as increase in caspase 3 activity at 500 ug/ml measured after 24 hrs in presence of topotecan by Ac-DEVD-pNA substrate based colorimetric assay; format: functional, cell-based
LNCaP [44] = assay: Induction of apoptosis in human LNCAP cells assessed as increase in cleaved PARP expression at 500 ug/ml measured after 24 hrs by western blot analysis; format: functional, cell-based
[45] = Drug uptake in cytoplasm of human LNCAP cells at 250 to 500 ug/mL incubated for 12 hrs followed by single compound washout by fluorescence microscopic analysis; format: ADME, subcellular
[46] = Drug uptake in plasma membrane of human LNCAP cells at 250 to 500 ug/mL incubated for 12 hrs followed by single washout by fluorescence microscopic analysis; format: ADME, cell membranes
LNCaP [47] = assay: Induction of apoptosis in human LNCAP cells assessed as decrease in uncleaved PARP expression at 500 ug/ml measured after 24 hrs by Western blot analysis; format: functional, cell-based
LNCaP [48] = assay: Induction of apoptosis in human LNCAP cells assessed as increase in caspase 9 activity at 500 ug/ml measured after 24 hrs in presence of topotecan by Ac-LEHD-pNA substrate based colorimetric assay; format: functional, cell-based
LNCaP [49] = assay: Up regulation of BAG1 gene expression in human LNCAP cells at 500 ug/ml measured after 24 hrs by RT profile PCR analysis relative to control; format: functional
[50] = target: T1, Tumor necrosis factor receptor superfamily member 6 (Homo sapiens); assay: Activation of FAS receptor in human LNCAP cells assessed as increase in caspase 8 activity at 500 ug/ml measured after 24 hrs by Ac-IETD-pNA substrate based colorimetric assay; format: cell-based
LNCaP [51] = assay: Induction of apoptosis in human LNCAP cells assessed as up regulation of cleaved caspase 3 expression at 500 ug/ml measured after 24 hrs by Western blot analysis; format: functional, cell-based

C/C=C1/C(=C\c2[nH]c(/C=C3N=C(/C=C4/NC(=O)C(CC)=C4C)C(C)=C/3CCC(=O)O)c(CCC(=O)O)c2C)NC(=O)C1C (stereo unspecified)
Activity (LNCaP [1]): Active
fold change (FC) (LNCaP [2]): 2.23
fold change (FC) (LNCaP [3]): 1.67
fold change (FC) (LNCaP [4]): 5.34
Drug uptake [5]: Not Active
fold change (FC) (LNCaP [6]): 3.84
Activity (LNCaP [7]): Active
fold change (FC) (LNCaP [8]): 2.72
Activity (LNCaP [9]): Active
fold change (FC) (LNCaP [10]): 2.33
Activity (LNCaP [11]): Active
Ratio (LNCaP [12]): >3.5
fold change (FC) (LNCaP [13]): 0.47
Activity (LNCaP [14]): Active
fold change (FC) (LNCaP [15]): 6.01
Activity (LNCaP [16]): Active
Activity (LNCaP [17]): Active
Activity (LNCaP [18]): Active
Activity [19]: Active
fold change (FC) (LNCaP [20]): 0.45
Drug uptake [21]: Active
Activity (LNCaP [22]): Active
Activity (LNCaP [23]): inactive
Activity (LNCaP [24]): Active
fold change (FC) (LNCaP [25]): 0.009
Activity (LNCaP [26]): Active
Ratio (LNCaP [27]): >1.5
fold change (FC) (LNCaP [28]): 0.56
fold change (FC) (LNCaP [29]): 1.2
Activity (LNCaP [30]): Active
Activity (LNCaP [31]): Active
Activity (LNCaP [32]): Active
Activity (LNCaP [33]): Active
Activity (LNCaP [34]): Active
Activity (LNCaP [35]): Active
Activity (LNCaP [36]): >65%
Activity (LNCaP [37]): Active
Activity (LNCaP [38]): Active
Activity (LNCaP [39]): Active
Activity (LNCaP [40]): Active
Activity (LNCaP [41]): Active
Activity (LNCaP [42]): Active
Activity (LNCaP [43]): Active
Activity (LNCaP [44]): Active
Drug uptake [45]: Not Active
Drug uptake [46]: Active
Activity (LNCaP [47]): Active
Activity (LNCaP [48]): Active
fold change (FC) (LNCaP [49]): 1.76
Activity [50]: Active
Activity (LNCaP [51]): Active
